Values quoted from earlier work, collected in PMC10674484, “A Spectroscopic and Molecular Dynamics Study on the Aggregation Properties of a Lipopeptide Analogue of Liraglutide, a Therapeutic Peptide against Diabetes Type 2” (Molecules, 2023).
Read-outs that look alike come from different tables or passages of the source.

Assays:
albumin = tested on: albumin
Excerpt: (§1) From this point of view, it is interesting to compare the aggregation properties and binding affinity to serum proteins of Liraglutide, a once daily administration drug, and Semaglutide, a one weekly administration drug.

[1] = Excerpt: Liraglutide (LG), a lipidated glucagon-like peptide 1 derivative, more than a decade ago became a once daily leading drug in the therapy of diabetes and obesity. However, despite its prominent role in the market, LG pharmacokinetics is still under scrutiny. Former studies have shown that LG complexation with human serum albumin (HSA) is one of the factors affecting LG circulation time and catabolism. Moreover, it has been shown that the relatively large size of HSA protects LG against proteolytic degradation or rapid renal filtration, resulting in a long half-life in human ...
[2] = remark: listed apart in the source
Excerpt: as §1

Row | Substance | affinity for albumin compared with Liraglutide (albumin) | half-life ([1]; humans, subcutaneous administration) | number of LP units per aggregate ([1]; pH 6.4) | number of LP units per aggregate ([1]; pH 8) | cac compared with Semaglutide [2]
1 | Semaglutide | markedly higher | – | – | – | –
2 | Liraglutide | – | 11 to 15 h | twelve | eight | lower than the latter
